Data published in paper PMC7397274, “Triazolopyridopyrimidine: A New Scaffold for Dual-Target Small Molecules for Alzheimer’s Disease Therapy” (Molecules, 2020).
“And” between values parts separate entries of the source, which are not always exact repeats. Equal entries are not always repeated. Where two headings read alike, the source gives them in different places.

Assays:
[1] = molecular target: T1, EeAChE (Electrophorus electricus, UniProt O42275); assay: biochemical; assay type: biochemical; conditions: for inhibition at 10 µM: 10 μM compound; for inhibition at 10 µM / IC50: Ellman method; for IC50: mean ± SEM; for fold less active than tacrine (EeAChE IC50): relative to tacrine IC50 = 0.03 μM
T1 construct: purchased Sigma Aldrich
Description: The effect of the test compounds on the activity of both EeAChE and eqBuChE was evaluated following the spectrophotometric method of Ellman. The reaction occurred in a final volume of 3 mL of a 0.1 M phosphate-buffered solution at pH = 8.0, containing 5,5′-dithiobis-2-nitrobenzoic acid (DTNB, 2625 µL, 0.35 mM, final concentration), EeAChE (29 µL, 0.035 U/mL, final concentration) or eqBuChE (60 µL, 0.05 U/mL, final concentration), tested compound (3 µL, […]), and 1% w/v bovine albumin serum phosphate-buffered (pH = 8) solution (BSA, 60 µL). After this pre-incubation period, acetylthiocholine iodide (105 µL, 0.35 mM, final concentration) or butyrylthiocholine iodide (150 µL, 0.5 mM, final concentration) was added, allowing 15 min of additional incubation time.

[2] = ORAC-FL; for ORAC (TE): fluorescein probe, Trolox standard, mean (n = 3) ± SEM; for antioxidant activity (ORAC) in words: qualitative statement or comparison with positive controls

T1 sequence (O42275 24-633): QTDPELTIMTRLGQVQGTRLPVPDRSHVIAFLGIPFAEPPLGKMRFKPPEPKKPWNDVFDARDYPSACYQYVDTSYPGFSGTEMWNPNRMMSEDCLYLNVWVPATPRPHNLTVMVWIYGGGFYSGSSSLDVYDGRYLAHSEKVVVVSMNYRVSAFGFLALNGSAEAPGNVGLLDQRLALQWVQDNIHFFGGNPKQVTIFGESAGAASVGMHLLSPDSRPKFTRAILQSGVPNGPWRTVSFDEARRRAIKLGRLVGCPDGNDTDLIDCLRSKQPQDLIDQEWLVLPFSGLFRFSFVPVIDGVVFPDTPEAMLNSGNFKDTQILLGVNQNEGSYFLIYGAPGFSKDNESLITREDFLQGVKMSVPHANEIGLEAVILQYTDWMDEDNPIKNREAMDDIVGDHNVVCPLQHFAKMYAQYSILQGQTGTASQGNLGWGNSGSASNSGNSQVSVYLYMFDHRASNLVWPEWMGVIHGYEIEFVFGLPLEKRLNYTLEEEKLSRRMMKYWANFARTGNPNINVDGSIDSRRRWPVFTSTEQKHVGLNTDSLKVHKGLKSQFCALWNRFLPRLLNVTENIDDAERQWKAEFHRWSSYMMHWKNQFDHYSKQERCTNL

| SMILES | inhibition at 10 µM [1] | ORAC (TE) [2] | IC50 [1] | fold less active than tacrine (EeAChE IC50) [1] | antioxidant activity (ORAC) in words [2] | ORAC (TE) ([2]; listed as ferulic acid) |
| --- | --- | --- | --- | --- | --- | --- |
| N#Cc1c(-c2ccccc2)c2c(N)ncnc2n2nc(-c3ccccc3)nc12 [Compound 3a, 6-Amino-2,5-diphenyl-[1,2,4]triazolo[1′,5′:1,6]pyrido[2,3-d] pyrimidine-4-carbonitrile] | 40.3 ± 2.4% | 1.85 ± 0.1 TE | – | – | – | – |
| Cc1ccc(-c2c(C#N)c3nc(-c4ccccc4)nn3c3ncnc(N)c23)cc1 [Compound 3b, 6-Amino-2-phenyl-5-(p-tolyl)-[1,2,4]triazolo[1′,5′:1,6]pyrido[2,3-d] pyrimidine-4-carbonitrile] | 73.13 ± 0.1% | 1.77 TE and 1.77 ± 0.1 TE | 1.17 µM | 39 fold | – | – |
| COc1ccc(-c2c(C#N)c3nc(-c4ccccc4)nn3c3ncnc(N)c23)cc1 [Compound 3c, 6-Amino-5-(4-methoxyphenyl)-2-phenyl-[1,2,4]triazolo[1′,5′:1,6]pyrido[2,3-d] pyrimidine-4-carbonitrile] | 63.9 ± 1.8% | 4.01 TE and 4.01 ± 0.1 TE | 1.3 µM and 1.32 µM | 44 fold | – | – |
| COc1cccc(-c2c(C#N)c3nc(-c4ccccc4)nn3c3ncnc(N)c23)c1 [Compound 3d, 6-Amino-5-(3-methoxyphenyl)-2-phenyl-[1,2,4]triazolo[1′,5′:1,6]pyrido[2,3-d] pyrimidine-4-carbonitrile] | 31.2 ± 2.1% | 4.33 ± 0.1 TE | – | – | – | – |
| COc1ccccc1-c1c(C#N)c2nc(-c3ccccc3)nn2c2ncnc(N)c12 [Compound 3e, 6-Amino-5-(2-methoxyphenyl)-2-phenyl-[1,2,4]triazolo[1′,5′:1,6]pyrido[2,3-d] pyrimidine-4-carbonitrile] | 32.3 ± 2.4% | 3.79 ± 0.1 TE | – | – | – | – |
| N#Cc1c(-c2ccc(Cl)cc2)c2c(N)ncnc2n2nc(-c3ccccc3)nc12 [Compound 3f, 6-Amino-5-(4-chlorophenyl)-2-phenyl-[1,2,4]triazolo[1′,5′:1,6]pyrido[2,3-d] pyrimidine-4-carbonitrile] | 43.9 ± 1.2% | 1.81 ± 0.1 TE | – | – | – | – |
| N#Cc1c(-c2ccc(O)cc2)c2c(N)ncnc2n2nc(-c3ccccc3)nc12 [Compound 3g, 6-Amino-5-(4-hydroxyphenyl)-2-phenyl-[1,2,4]triazolo[1′,5′:1,6]pyrido[2,3-d] pyrimidine-4-carbonitrile] | 36.4 ± 0.6% | 7.17 TE and 7.17 ± 0.2 TE | – | – | most potent antioxidant | – |
| N#Cc1c(-c2ccc([N+](=O)[O-])cc2)c2c(N)ncnc2n2nc(-c3ccccc3)nc12 [Compound 3h, 6-Amino-5-(4-nitrophenyl)-2-phenyl-[1,2,4]triazolo[1′,5′:1,6]pyrido[2,3-d] pyrimidine-4-carbonitrile] | 44.6 ± 1.6% | 3.54 ± 0.1 TE | – | – | moderate antioxidants | – |
| CC(C)c1ccc(-c2c(C#N)c3nc(-c4ccccc4)nn3c3ncnc(N)c23)cc1 [Compound 3i, 6-Amino-5-(4-isopropylphenyl)-2-phenyl-[1,2,4]triazolo[1′,5′:1,6]pyrido[2,3-d] pyrimidine-4-carbonitrile] | 18.2 ± 1% | 1.89 ± 0.1 TE | – | – | – | – |
| N#Cc1c(-c2ccc(Br)cc2)c2c(N)ncnc2n2nc(-c3ccccc3)nc12 [Compound 3j, 6-Amino-5-(4-bromophenyl)-2-phenyl-[1,2,4]triazolo[1′,5′:1,6]pyrido[2,3-d] pyrimidine-4-carbonitrile] | 38.1 ± 1.1% | 2.57 ± 0.0 TE | – | – | – | – |
| N#Cc1c(-c2ccc(Oc3ccccc3)cc2)c2c(N)ncnc2n2nc(-c3ccccc3)nc12 [Compound 3k, 6-Amino-5-(4-phenoxyphenyl)-2-phenyl-[1,2,4]triazolo[1′,5′:1,6]pyrido[2,3-d] pyrimidine-4-carbonitrile] | 18.6 ± 1.8% | 2.99 ± 0.2 TE | – | – | weaker antioxidant activity | – |
| COc1cc(/C=C/C(=O)O)ccc1O [Ferulic acid, reference compound] | – | 3.74 ± 0.2 TE | – | – | – | 3.7 TE |
